Values quoted from earlier work in patent publication US8097625B2, “Combination of sedative and a neurotransmitter modulator, and methods for improving sleep quality and treating depression” (priority 2003, dated 2012).
Counter-ions that a name gives are not always drawn.

Columns and labels:
[1] = test system: lumbar dorsal horn interneurones and Renshaw cells; conditions: cats anaesthetized with pentobarbitone sodium; electrophoretic currents; cited from earlier work
GABA uptake system = test system: GABA uptake system; set-up: dose or concentration left out as unconfirmed; conditions: cited from earlier work
[2] = target: GABA:2-oxo-glutarate aminotransferase (Homo sapiens, UniProt P80404); conditions: 10^−3 M; cited from earlier work
Chain of GABA:2-oxo-glutarate aminotransferase (P80404 29-500): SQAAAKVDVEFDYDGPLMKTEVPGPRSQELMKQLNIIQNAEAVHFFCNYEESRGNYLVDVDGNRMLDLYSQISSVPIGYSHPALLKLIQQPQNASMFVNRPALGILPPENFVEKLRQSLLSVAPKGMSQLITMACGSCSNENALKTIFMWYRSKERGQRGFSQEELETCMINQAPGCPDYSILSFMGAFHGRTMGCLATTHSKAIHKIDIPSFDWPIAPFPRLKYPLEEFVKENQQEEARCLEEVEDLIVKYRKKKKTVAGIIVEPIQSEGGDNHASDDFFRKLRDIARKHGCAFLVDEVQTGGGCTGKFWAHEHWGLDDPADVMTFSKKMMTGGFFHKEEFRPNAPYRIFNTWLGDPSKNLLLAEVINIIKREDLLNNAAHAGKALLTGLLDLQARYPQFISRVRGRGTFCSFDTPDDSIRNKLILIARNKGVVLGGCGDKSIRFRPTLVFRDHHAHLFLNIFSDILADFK

[3] = test system: L-glutamate 1-carboxylase; conditions: 10^−3 M; cited from earlier work
[4] = cited from earlier work
[5] = oral; cited from earlier work
[6] = target: norepinephrine transporter (Homo sapiens, UniProt P23975); conditions: cited from earlier work
Chain of norepinephrine transporter (P23975 whole entry): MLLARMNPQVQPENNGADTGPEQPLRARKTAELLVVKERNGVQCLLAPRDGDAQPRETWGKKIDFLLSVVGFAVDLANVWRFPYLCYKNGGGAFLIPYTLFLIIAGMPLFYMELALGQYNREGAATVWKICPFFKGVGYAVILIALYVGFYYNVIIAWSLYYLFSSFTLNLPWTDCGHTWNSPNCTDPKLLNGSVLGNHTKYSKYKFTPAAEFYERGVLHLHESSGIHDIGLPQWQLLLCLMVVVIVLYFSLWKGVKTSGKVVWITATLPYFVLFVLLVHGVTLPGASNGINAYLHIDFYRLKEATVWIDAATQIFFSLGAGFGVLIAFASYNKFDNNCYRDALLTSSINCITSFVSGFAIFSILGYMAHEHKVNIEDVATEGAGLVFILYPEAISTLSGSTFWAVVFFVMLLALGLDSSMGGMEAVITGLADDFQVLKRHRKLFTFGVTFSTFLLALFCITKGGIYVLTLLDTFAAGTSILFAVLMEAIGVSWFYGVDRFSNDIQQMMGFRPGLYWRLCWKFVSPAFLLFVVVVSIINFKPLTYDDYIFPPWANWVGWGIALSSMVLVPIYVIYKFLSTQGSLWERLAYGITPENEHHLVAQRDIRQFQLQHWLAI

mice = conditions: reference agents, scores below 40 denote behavioral depression; cited from earlier work
[7] = humans, cited from earlier work
[8] = test system: patients with major depression; conditions: 24 patients (37 trials) with major depression, 3 weeks; cited from earlier work
[9] = test system: norepinephrine and serotonin reuptake; conditions: cited from earlier work
[10] = humans, 20 or 40 mg b.i.d. for 7 days; cited from earlier work
[11] = oral, 10 mg or 20 mg daily doses; cited from earlier work
[12] = cited from earlier work; remark: listed apart in the source

SMILES: Oc1noc2c1CCNC2 [gaboxadol, 4,5,6,7-tetrahydroisoxazolo[5,4-c]pyridin-3-ol]
- potency versus GABA, inhibition of the firing of central neurones [1]: relatively more potent than GABA
- interaction with the GABA uptake system (GABA uptake system): did not interact
- interaction with GABA:2-oxo-glutarate aminotransferase [2]: did not interact
- interaction with L-glutamate 1-carboxylase [3]: did not interact

SMILES: CNCCCN1c2ccccc2CCc2ccccc21 [Desipramine hydrochloride, 10,11-Dihydro-N-methyl-5H-dibenz[b,f]azepine-5-propanamine]
- solubility in water (in words) [4]: soluble in water

SMILES: Cc1ccc(-c2nc3ccc(C)cn3c2CC(=O)N(C)C)cc1 [zolpidem, N,N,6-trimethyl-2-(4-methylphenyl)-imidazo [1,2-s]pyridine-3-acetamide]
- duration of action [5]: up to 6 hours

SMILES: c1ccc(CCCN2CCN(CCOC(c3ccccc3)c3ccccc3)CC2)cc1 [GBR-12935, 1-[2-(diphenylmethoxy)ethyl]-4-(3-phenylpropyl)piperazine dihydrochloride]
- Ki [6]: 225 nM

SMILES: CNCCCC12CCC(c3ccccc31)c1ccccc12 [Maprotiline hydrochloride, N-Methyl-9,10-ethanoanthracene-9(10H)-propanamine]
- solubility in water (in words) [4]: slightly soluble in water

SMILES: CCC1(c2ccccc2)CCC(=O)NC1=O (stereo not drawn) [glutethimide]
- ED100 (mice): 300 mg/kg

SMILES: O=C(CCCN1CCC(O)(c2ccc(Cl)cc2)CC1)c1ccc(F)cc1 [haloperidol]
- ED100 (mice): 10 mg/kg

SMILES: CC(NC(C)(C)C)C(=O)c1cccc(Cl)c1 (stereo not drawn) [Bupropion]
- mean elimination half-life (±SD) ([7]; after chronic dosing): 21 (±9) hours
- terminal phase mean half-life ([7]; oral administration): 14 h

SMILES: CNCC(O)CC12CCC(c3ccccc31)c1ccccc12 (racemic) [oxaprotiline, (±)-α-[(Methylamino)-methyl]-9,10-ethanoanthracene-9(10H)-ethanol]
- Hamilton Scores [8]: significant reduction

SMILES: CCN(CC)C(=O)[C@@]1(c2ccccc2)C[C@H]1CN (single isomer, unassigned) [levrogyral enantiomer]
- activity in inhibiting norepinephrine and serotonin reuptake versus the racemic mixture [9]: much less potent

SMILES: CCN(CC)C(=O)[C@@]1(c2ccccc2)C[C@H]1CN (single isomer, unassigned) [dextrogyral enantiomer of milnacipran]
- activity in inhibiting norepinephrine and serotonin reuptake versus the racemic mixture [9]: about twice as active

SMILES: CCCC(C)(COC(N)=O)COC(N)=O [meprobamate]
- ED100 (mice): 300 mg/kg

SMILES: CNCC[C@@H](Oc1ccccc1C)c1ccccc1 [tomoxetine, (R)-(−)-N-methyl-3-(2-methylphenoxy)-3-phenylpropylamine]
- drug-related adverse effects [10]: no serious drug-related adverse effects were observed

SMILES: COC(=O)[C@H]1[C@H]2C[C@@H]3c4[nH]c5cc(OC)ccc5c4CCN3C[C@H]2C[C@@H](OC(=O)c2cc(OC)c(OC)c(OC)c2)[C@@H]1OC [reserpine]
- ED100 (mice): 50 mg/kg

SMILES: CCCC(C)C1(CC)C(=O)NC(=O)NC1=O (stereo not drawn) [pentobarbital]
- ED100 (mice): 100 mg/kg

SMILES: CNCCC(Oc1ccc(C(F)(F)F)cc1)c1ccccc1.Cl (racemic) [Fluoxetine hydrochloride, N-methyl-3-(p-trifluormethylphenoxy)3-phenylpropylamine]
- elimination half-life [11]: 24 to 220 h
- elimination half-life, averaging [11]: 48 to 72 h

SMILES: CC(=O)N(C)c1cccc(-c2ccnc3c(C(=O)c4cccs4)cnn23)c1 [Indiplon, N-methyl-N-(3-{3-[2-thienylcarbonyl]-pyrazolo-[1,5-a]-pyrimidin-7-yl}-phenyl)acetamide]
- resulting pH of solution in water ([4]; at approximately 20-30 µg/mL): approximately 8.0
- soluble in water ([4]; resulting pH approximately 8.0): 20 to 30 µg/mL
- half-life in vivo [12]: approximately 1.3 hours
